Common to all, as to conditions: stereoisomer not certain
Data set [1] is described as follows: RP, Waters ACQUITY UPLC BEH C18, 100 × 2.1 mm, 1.7 µm, 0.2 mL/min, estimated dead time 1.1 min; A: water + 0.1% formic acid, pH 3; B: methanol + 0.1% formic acid, pH 3; gradient (min/%B) 0/5 5/5 25/100 30/100 30.1/5 35/5.
A short description of data set [2]: RP, Waters CORTECS T3, 100 × 2.1 mm, 2.7 µm, 0.3 mL/min, estimated dead time 0.73 min; A: water + 0.1% formic acid, pH 3; B: methanol + 0.1% formic acid, pH 3; gradient (min/%B) 0/0 5/0 25/100 30/100 30.1/0 35/0.
Data set [3] is described as follows: RP, Waters ACQUITY UPLC BEH C18, 100 × 2.1 mm, 1.7 µm, 0.2 mL/min, estimated dead time 1.1 min; A: water + 0.025% formic acid + 20 mM ammonium acetate + 0.055% ammonium hydroxide, pH 7; B: methanol; gradient (min/%B) 0/5 5/5 25/100 30/100 30.1/5 35/5.
Data set [4] can be described thus: RP, Waters CORTECS T3, 100 × 2.1 mm, 2.7 µm, 0.15 mL/min, estimated dead time 1.5 min; A: water + 0.1% formic acid, pH 3; B: methanol + 0.1% formic acid, pH 3; gradient (min/%B) 0/5 5/5 25/95 25.1/100 35/100 35.1/5 45/5.
A short description of data set [5]: RP, Waters CORTECS T3, 100 × 2.1 mm, 2.7 µm, 0.2 mL/min, estimated dead time 1.1 min; A: water + 0.1% formic acid, pH 3; B: methanol + 0.1% formic acid, pH 3; gradient (min/%B) 0/5 5/5 25/95 25.1/100 35/100 35.1/5 45/5.
Data set [6] can be described thus: RP, Waters ACQUITY UPLC BEH C18, 100 × 2.1 mm, 1.7 µm, 0.1 mL/min, estimated dead time 2.2 min; A: water + 0.1% formic acid, pH 3; B: methanol + 0.1% formic acid, pH 3; gradient (min/%B) 0/5 5/5 25/95 25.1/100 35/100 35.1/5 45/5.
Data set [7] is described as follows: RP, Waters CORTECS T3, 100 × 2.1 mm, 2.7 µm, 0.2 mL/min, estimated dead time 1.1 min; A: water + 0.1% formic acid, pH 3; B: methanol + 0.1% formic acid, pH 3; gradient (min/%B) 0/0 1/0 6/5 30/100 35/100 35.1/0 40/0.
Data set [8] can be described thus: RP, Waters CORTECS T3, 100 × 2.1 mm, 2.7 µm, 0.25 mL/min, estimated dead time 0.88 min; A: water + 0.1% formic acid, pH 3; B: methanol + 0.1% formic acid, pH 3; gradient (min/%B) 0/5 5/5 25/95 25.1/100 35/100 35.1/5 45/5.
Data set [9] can be described thus: HILIC, Merck SeQuant ZIC-HILIC, 150 × 2.1 mm, 5 µm, 0.75 mL/min, estimated dead time 0.44 min; A: water + 0.1% acetic acid + 10 mM ammonium acetate, pH 4; B: 5% water + 95% acetonitrile + 0.1% acetic acid + 10 mM ammonium acetate, pH 4; gradient (min/%B) 0/95 5/95 20/57 25/57 30/95 40/95.
Data set [10] in a line: HILIC, Thermo Scientific Accucore HILIC, 100 × 2.1 mm, 2.6 µm, 0.5 mL/min, estimated dead time 0.44 min; A: water + 0.1% formic acid + 10 mM ammonium formate, pH 3; B: 5% water + 95% acetonitrile + 0.1% formic acid + 10 mM ammonium formate, pH 3; gradient (min/%B) 0/95 5/95 20/57 25/57 30/95 40/95.
The nature of data set [11]: RP, Waters CORTECS T3, 100 × 2.1 mm, 2.7 µm, 0.3 mL/min, estimated dead time 0.73 min; A: water + 0.1% formic acid, pH 3; B: methanol + 0.1% formic acid, pH 3; gradient (min/%B) 0/0 1/0 6/5 30/100 35/100 35.1/0 40/0.
Data set [12] is described as follows: HILIC, Merck SeQuant ZIC-HILIC, 150 × 2.1 mm, 5 µm, 0.75 mL/min, estimated dead time 0.44 min; A: water + 10 mM ammonium formate, pH 6; B: 5% water + 95% acetonitrile + 10 mM ammonium formate, pH 6; gradient (min/%B) 0/95 5/95 20/57 25/57 30/95 40/95.
Data set [13] in a line: HILIC, Waters XBridge BEH Amide, 100 × 2.1 mm, 2.5 µm, 0.5 mL/min, estimated dead time 0.44 min; A: water + 0.1% acetic acid + 10 mM ammonium acetate, pH 4; B: 5% water + 95% acetonitrile + 0.1% acetic acid + 10 mM ammonium acetate, pH 4; gradient (min/%B) 0/95 5/95 20/57 25/57 30/95 40/95.
Data set [14] is described as follows: RP, Waters CORTECS T3, 100 × 2.1 mm, 2.7 µm, 0.25 mL/min, estimated dead time 0.88 min; A: water + 0.1% formic acid, pH 3; B: methanol + 0.1% formic acid, pH 3; gradient (min/%B) 0/0 1/0 6/5 30/100 35/100 35.1/0 40/0.
The nature of data set [15]: RP, Waters ACQUITY UPLC BEH C18, 100 × 2.1 mm, 1.7 µm, 0.2 mL/min, estimated dead time 1.1 min; A: water + 0.025% formic acid + 20 mM ammonium acetate + 0.055% ammonium hydroxide, pH 7; B: methanol; gradient (min/%B) 0/5 5/5 25/100 30/100 30.1/5 35/5. The source holds these as a separate data set.
A short description of data set [16]: RP, Waters CORTECS T3, 100 × 2.1 mm, 2.7 µm, 0.3 mL/min, estimated dead time 0.73 min; A: water + 0.1% formic acid, pH 3; B: methanol + 0.1% formic acid, pH 3; gradient (min/%B) 0/0 5/0 25/100 30/100 30.1/0 35/0. This is another data set of the same source.
A short description of data set [17]: RP, Waters ACQUITY UPLC BEH C18, 100 × 2.1 mm, 1.7 µm, 0.1 mL/min, estimated dead time 2.2 min; A: water + 0.1% formic acid, pH 3; B: methanol + 0.1% formic acid, pH 3; gradient (min/%B) 0/5 5/5 25/100 30/100 30.1/5 35/5.
Data set [18] can be described thus: RP, Waters ACQUITY UPLC BEH C18, 100 × 2.1 mm, 1.7 µm, 0.1 mL/min, estimated dead time 2.2 min; A: water + 0.045% formic acid + 0.11% ammonium hydroxide, pH 7; B: methanol; gradient (min/%B) 0/5 5/5 25/95 25.1/100 35/100 35.1/5 45/5.
Data set [19] can be described thus: RP, Waters CORTECS T3, 100 × 2.1 mm, 2.7 µm, 0.3 mL/min, estimated dead time 0.73 min; A: water + 0.1% formic acid, pH 3; B: methanol + 0.1% formic acid, pH 3; gradient (min/%B) 0/0 1/0 6/5 30/100 35/100 35.1/0 40/0. The source holds these as a separate data set.
Data set [20] is described as follows: RP, Waters CORTECS T3, 100 × 2.1 mm, 2.7 µm, 0.15 mL/min, estimated dead time 1.5 min; A: water + 0.1% formic acid, pH 3; B: methanol + 0.1% formic acid, pH 3; gradient (min/%B) 0/0 1/0 6/5 30/100 35/100 35.1/0 40/0.
Data set [21] can be described thus: RP, Thermo Scientific Hypercarb, 150 × 2.1 mm, 5 µm, 0.1 mL/min, estimated dead time 3.3 min; A: water + 0.1% formic acid, pH 3; B: methanol + 0.1% formic acid, pH 3; gradient (min/%B) 0/5 5/5 20/100 35/100 35.1/5 45/5.

Counter-ions that a name gives are not always drawn.

Among the data in the RepoRT retention time repository (doi:10.1016/j.jchromb.2020.122105) are LC retention time values, retold here.

Turning to `CC(=O)NCCCC(=O)[O-]` [4-ACETAMIDOBUTANOATE], the LC retention time in [1] was 3.16 min; in [2], 3.7 min; in data set [3], 1.38 min; in data set [4], 3.97 min; in [5], 9.19 min; in [6], 6.08 min. Also, the LC retention time was 5.13 min in data set [7]; 2.43 min in data set [8]; 8.54 min in data set [9]; 2.99 min in data set [10]; 3.71 min in [11].
`O=C(O)CCCCCC(=O)O` [6-CARBOXYHEXANOATE]: the LC retention time is 11.9 min in data set [1]; 11.3 min in data set [2]; 13.1 min in data set [4]; 16.9 min in data set [5]; 12.9 min in data set [12]; 15.6 min in data set [6]. Also, the LC retention time in data set [7] was 13.3 min; in data set [8] it was 10.9 min; in data set [9], 11.9 min; in [10] it was 2.01 min; in [11], 11.7 min.
On to `Nc1ncnc2nc[nH]c12` [ADENINE], for which the LC retention time in data set [13] is 2.99 min; in data set [1], 1.36 min; in data set [2] it was 0.91 min; in data set [3], 1.89 min; in data set [14], 1.06 min; in data set [15], 3.46 min. Further, the LC retention time is 0.91 min in data set [16]; 2.71 min in [17]; 2.67 min in [5]; 2.16 min in [12]; 2.65 min in data set [6]; 1.06 min in data set [8]. For the same compound, the LC retention time was 2.75 min in [18]; 0.9 min in data set [19]; 2.08 min in data set [10]; 1.8 min in data set [20]; 0.9 min in [11].
With `Nc1ccccc1S(=O)(=O)O` [ANILINE-2-SULFONIC ACID], the LC retention time in [13] is 1.66 min; in data set [1] it was 2.68 min; in [2] it was 2.13 min; in data set [3], 2.03 min; in data set [4], 3.09 min; in data set [5], 5.88 min. The LC retention time in data set [6] is 5.22 min; in data set [7], 3.02 min; in data set [8], 1.89 min; in [10] it was 1.05 min; in data set [11], 2.13 min.
`NCCC(=O)NC(Cc1cnc[nH]1)C(=O)O` (centres undefined) [CARNOSINE]: the LC retention time is 15 min in [13]; 1.36 min in [3]; 4.86 min in data set [21]; 2.43 min in data set [5]; 15.9 min in data set [12]; 16.3 min in data set [9]. The LC retention time in [10] was 15.4 min.
`CSCCC(NC=O)C(=O)O` [FORMYL-L-METHIONYL PEPTIDE]: the LC retention time in data set [1] was 8.3 min; in data set [2], 8.31 min; in data set [3], 2.14 min; in [4], 9.18 min; in data set [5] it was 13.3 min; in data set [6] it was 12.3 min. Moreover, the LC retention time in data set [7] is 9.43 min; in data set [8], 6.13 min; in data set [9] it was 7.68 min; in data set [10], 5.85 min; in [11], 7.57 min.
In the case of `O=S(=O)(O)Oc1c[nH]c2ccccc12` [INDOXYL SULFATE], the LC retention time in data set [13] is 0.95 min; in data set [1], 8.8 min; in data set [2] it was 8.35 min; in data set [3], 5.76 min; in data set [4], 9.5 min; in [5], 13.6 min. Also, the LC retention time was 12.8 min in [6]; 9.62 min in data set [7]; 6.23 min in [8]; 3.84 min in [9]; 0.54 min in data set [10]; 7.71 min in [11].
On to `O=C(O)CCCCCCC(=O)O` [SUBERIC ACID], for which the LC retention time in [1] is 14.3 min; in [2] it was 13.5 min; in [4], 15.6 min; in data set [5] it was 19.6 min; in data set [6] it was 18 min; in [7] it was 16.1 min. For the same compound, the values for the LC retention time in [8], in data set [10] and in [11] were 13.5 min, 1.39 min and 14.6 min, respectively.
